Measured values reported in patent publication US20200138854A1, “Method of Detecting and Quantifying Bile Acid from Saliva” (Ironwood Pharmaceuticals, Inc., priority 2017, published 2020).
Where “and” joins values, the source holds several entries; their conditions need not be identical. Equal entries are not always repeated.

Legend:
[1] = Long-term (1 month at −20° C. and −80° C.) stability in untreated human saliva; settings: for % Bias QC-High / % CV QC-High / Difference from Fresh (%) QC-High / Mean concentration QC-High / Concentration QC-High / Fresh QCs (Batch 34) Mean at Time Zero, QC-High: untreated human saliva, nominal 80.0 ng/mL; for Concentration QC-High: run 35
Procedure: For long-term stability in untreated human saliva, samples were prepared by spiking untreated human saliva with each analyte at the QC-Low and QC-High levels. The samples were stored in a −20° C. freezer and in a −80° C. freezer. After 1 month of storage, each sample was extracted in replicates of three for analysis.
A 100-μL aliquot of sample (calibration standards, quality controls, blanks, and stability samples) was transferred into a 96 well plate, according to a pre-defined layout. […] The plates were covered, vortex-mixed and then centrifuged for 5 minutes at 3200 rpm. Supernatants (350 μL each) were transferred into the corresponding wells of a clean 96 well plate and evaporated to dryness under nitrogen in a Turbovap set to 40° C. The dried residue in each well was reconstituted with 75 μL of 50:50 (v:v) methanol:water.

[2] = Frozen (−20° C.) short-term stability in cholestyramine-treated human saliva; settings: for % Bias / Concentration, Mean / Concentration: −20° C.; for Concentration: individual values
Procedure: Quality control samples for the evaluation of accuracy and precision and for run acceptance were prepared on the day of sample extraction. QC samples prepared in cholestyramine-treated saliva are to be prepared in small volumes for analysis. Stability for these QC samples would be limited to short-term storage (i.e., 2 days) whereas untreated human saliva would be evaluated for long-term storage.
For stability in cholestyramine-treated human saliva, samples were prepared by spiking cholestyramine-treated human saliva with each analyte at the QC-LLOQ, QC-Low, QC-Mid and QC-High levels. The samples were stored in a −20° C. freezer. After 1 day and 2 days of storage, each sample was extracted in replicates of four for analysis.

[3] = 1 Day, QC-High, nominal 80.0 ng/mL
[4] = 1 Day, QC-LLOQ, nominal 0.500 ng/mL
[5] = 1 Day, QC-Mid, nominal 8.00 ng/mL
[6] = 2 Days, QC-High, nominal 80.0 ng/mL
[7] = 2 Days, QC-LLOQ, nominal 0.500 ng/mL
[8] = 2 Days, QC-Mid, nominal 8.00 ng/mL

In the case of `C[C@H](CCC(=O)NCCS(=O)(=O)O)[C@H]1CC[C@H]2[C@@H]3CC[C@@H]4C[C@H](O)CC[C@]4(C)[C@H]3C[C@H](O)[C@]12C` [Taurodeoxycholic Acid, Taurodeoxycholic acid], the “% Bias QC-High” value ([1]; 1 month −20° C. storage) was −4.7%, the “% CV QC-High” value ([1]; 1 month −20° C. storage) was 3.5% and the “Difference from Fresh (%) QC-High” value ([1]; 1 month −20° C. storage) was −5.5%. The “Mean concentration QC-High” value ([1]; 1 month −20° C. storage) was 76.2 ng/mL, the “Concentration QC-High” value ([1]; 1 month −20° C. storage) was 73.7 ng/mL and 79.0 ng/mL and 76.0 ng/mL and the “% Bias QC-High” value ([1]; 1 month −80° C. storage) was −2.7%. The “% CV QC-High” value ([1]; 1 month −80° C. storage) was 4.4%, the “Difference from Fresh (%) QC-High” value ([1]; 1 month −80° C. storage) was −3.6% and the “Mean concentration QC-High” value ([1]; 1 month −80° C. storage) was 77.8 ng/mL. The “Concentration QC-High” value ([1]; 1 month −80° C. storage) was 80.2 ng/mL and 79.4 ng/mL and 73.9 ng/mL, the “Long-term stability in untreated human saliva” value ([1]; at 80° C. (sic)) was “up to 1 month” and the “Stability in Untreated Human Saliva” value ([1]; at −20° C.) was 1 Month. For the same compound, the “Stability in Untreated Human Saliva” value ([1]; at −80° C.) was 1 Month, the “Fresh QCs (Batch 34) Mean at Time Zero, QC-High” value ([1]; reference for −20° C. storage) was 80.7 ng/mL and the “Fresh QCs (Batch 34) Mean at Time Zero, QC-High” value ([1]; reference for −80° C. storage) was 80.7 ng/mL. The “Short-term stability in cholestyramine-treated human saliva” value ([2]; human) was “up to 2 days”, the “Stability in Treated Human Saliva” value ([2]; human) was 2 days and the “% Bias” value [2, 3] was −1.3%. The “Concentration, Mean” value [2, 3] was 79.0 ng/mL, the Concentration [2, 3] was 78.6 ng/mL and 82.0 ng/mL and 76.9 ng/mL and 78.5 ng/mL and the “% Bias” value [2, 4] was 10.3%. The “Concentration, Mean” value [2, 4] was 0.551 ng/mL, the Concentration [2, 4] was 0.539 ng/mL and 0.570 ng/mL and 0.536 ng/mL and 0.560 ng/mL and the “% Bias” value [2, 5] was −2.5%. For the same compound, the “Concentration, Mean” value [2, 5] was 7.80 ng/mL, the Concentration [2, 5] was 7.71 ng/mL and 7.90 ng/mL and 7.81 ng/mL and 7.77 ng/mL and the “% Bias” value [2, 6] was −4.4%. For the same compound, the “Concentration, Mean” value [2, 6] was 76.5 ng/mL, the Concentration [2, 6] was 73.7 ng/mL and 76.5 ng/mL and 76.2 ng/mL and 79.5 ng/mL and the “% Bias” value [2, 7] was 17.2%. The “Concentration, Mean” value [2, 7] was 0.586 ng/mL, the Concentration [2, 7] was 0.596 ng/mL and 0.592 ng/mL and 0.555 ng/mL and 0.601 ng/mL and the “% Bias” value [2, 8] was −2.9%. The “Concentration, Mean” value [2, 8] was 7.77 ng/mL and the Concentration [2, 8] was 7.19 ng/mL and 8.02 ng/mL and 8.13 ng/mL and 7.72 ng/mL.
